This note sets out measurements from ChEMBL document CHEMBL3124868, “Design, synthesis, pharmacological evaluation, QSAR analysis, molecular modeling and ADMET of novel donepezil-indolyl hybrids as multipotent cholinesterase/monoamine oxidase inhibitors for the potential treatment of Alzheimer's disease” (Eur J Med Chem, 2014).

For test [1], the target named is T1, Amine oxidase [flavin-containing] B (Homo sapiens, UniProt P27338).
T1 sequence (P27338 whole entry): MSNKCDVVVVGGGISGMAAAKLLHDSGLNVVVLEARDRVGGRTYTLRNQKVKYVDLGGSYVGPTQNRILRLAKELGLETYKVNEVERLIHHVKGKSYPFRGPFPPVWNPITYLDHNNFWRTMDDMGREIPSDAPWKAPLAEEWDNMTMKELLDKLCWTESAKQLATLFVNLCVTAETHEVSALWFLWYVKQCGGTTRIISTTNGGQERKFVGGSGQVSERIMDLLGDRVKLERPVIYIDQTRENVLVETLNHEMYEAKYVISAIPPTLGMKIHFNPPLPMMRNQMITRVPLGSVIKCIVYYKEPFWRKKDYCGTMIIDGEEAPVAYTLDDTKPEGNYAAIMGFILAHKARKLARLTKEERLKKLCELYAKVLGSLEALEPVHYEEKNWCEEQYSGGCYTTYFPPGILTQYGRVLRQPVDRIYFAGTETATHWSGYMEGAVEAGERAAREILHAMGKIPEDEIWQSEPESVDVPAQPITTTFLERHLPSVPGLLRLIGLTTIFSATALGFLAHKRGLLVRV
Kind of test: Inhibition of human recombinant MAO-B using tyramine as substrate preincubated for 30 mins followed by substrate addition measured for 1 hr by fluorometric assay.

In test [2] the target is T2, Amine oxidase [flavin-containing] A (Homo sapiens, UniProt P21397).
T2 sequence (P21397 whole entry): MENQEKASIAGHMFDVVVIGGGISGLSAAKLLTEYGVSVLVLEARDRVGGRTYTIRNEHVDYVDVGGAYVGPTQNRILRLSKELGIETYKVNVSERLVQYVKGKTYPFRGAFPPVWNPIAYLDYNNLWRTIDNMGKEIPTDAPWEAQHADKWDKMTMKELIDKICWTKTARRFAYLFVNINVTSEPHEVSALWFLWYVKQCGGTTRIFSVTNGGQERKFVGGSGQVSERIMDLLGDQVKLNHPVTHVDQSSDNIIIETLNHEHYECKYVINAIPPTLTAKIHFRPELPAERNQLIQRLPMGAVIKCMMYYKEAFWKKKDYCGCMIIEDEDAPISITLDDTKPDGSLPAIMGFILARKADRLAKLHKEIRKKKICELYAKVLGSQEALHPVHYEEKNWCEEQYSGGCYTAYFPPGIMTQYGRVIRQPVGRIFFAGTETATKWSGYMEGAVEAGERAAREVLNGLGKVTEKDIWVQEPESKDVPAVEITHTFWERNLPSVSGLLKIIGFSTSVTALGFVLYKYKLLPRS
Kind of test: Inhibition of human recombinant MAO-A using tyramine as substrate preincubated for 30 mins followed by substrate addition measured for 1 hr by fluorometric assay.

A short description of test [3]: Selectivity ratio of IC50 for equine serum BuChE to IC50 for electric eel AChE.
The next test deals with Cholinesterase (Equus caballus, UniProt P81908). Kind of test: Inhibition of equine serum BuChE using butyrylthiocholine iodide as substrate preincubated for 20 mins followed by substrate addition measured after 25 mins by Ellman's method.
Chain of Cholinesterase (P81908 whole entry): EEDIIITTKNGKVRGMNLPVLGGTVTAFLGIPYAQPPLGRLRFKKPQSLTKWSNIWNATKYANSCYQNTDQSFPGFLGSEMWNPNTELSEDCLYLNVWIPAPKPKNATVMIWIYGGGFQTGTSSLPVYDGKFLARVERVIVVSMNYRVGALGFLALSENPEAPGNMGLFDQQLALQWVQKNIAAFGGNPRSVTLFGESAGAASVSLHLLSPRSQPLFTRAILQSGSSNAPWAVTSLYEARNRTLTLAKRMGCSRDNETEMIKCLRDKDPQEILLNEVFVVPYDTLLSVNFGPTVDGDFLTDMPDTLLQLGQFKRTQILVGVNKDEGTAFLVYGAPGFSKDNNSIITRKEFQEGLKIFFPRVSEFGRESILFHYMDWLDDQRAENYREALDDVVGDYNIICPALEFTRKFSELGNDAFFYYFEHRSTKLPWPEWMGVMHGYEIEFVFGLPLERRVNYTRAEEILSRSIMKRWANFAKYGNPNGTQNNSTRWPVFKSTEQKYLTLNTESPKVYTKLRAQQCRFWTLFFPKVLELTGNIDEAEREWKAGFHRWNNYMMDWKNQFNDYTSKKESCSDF
For a further test, the target named is Acetylcholinesterase (Electrophorus electricus, UniProt O42275). Kind of test: Inhibition of electric eel AChE using acetylthiocholine iodide as substrate preincubated for 20 mins followed by substrate addition measured after 5 mins by Ellman's method.
Chain of Acetylcholinesterase (O42275 whole entry): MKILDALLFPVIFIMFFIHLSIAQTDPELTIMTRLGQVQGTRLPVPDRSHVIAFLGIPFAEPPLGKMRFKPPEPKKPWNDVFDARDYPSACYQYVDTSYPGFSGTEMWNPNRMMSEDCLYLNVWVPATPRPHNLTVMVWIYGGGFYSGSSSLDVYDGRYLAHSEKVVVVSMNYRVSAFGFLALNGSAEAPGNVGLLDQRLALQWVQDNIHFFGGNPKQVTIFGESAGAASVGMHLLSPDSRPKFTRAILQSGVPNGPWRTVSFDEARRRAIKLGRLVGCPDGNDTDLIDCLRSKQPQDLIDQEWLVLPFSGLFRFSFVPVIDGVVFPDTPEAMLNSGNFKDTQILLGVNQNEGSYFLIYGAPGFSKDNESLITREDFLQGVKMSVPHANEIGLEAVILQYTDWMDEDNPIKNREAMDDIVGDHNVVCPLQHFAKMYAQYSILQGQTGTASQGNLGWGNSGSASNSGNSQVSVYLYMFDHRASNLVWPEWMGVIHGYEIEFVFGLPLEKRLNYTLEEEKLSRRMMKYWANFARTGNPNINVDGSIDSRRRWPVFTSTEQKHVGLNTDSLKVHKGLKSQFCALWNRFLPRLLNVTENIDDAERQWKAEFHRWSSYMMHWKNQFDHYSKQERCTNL
The species named for the next test is Homo sapiens. Nature of the test: Selectivity ratio of IC50 for human recombinant MAO-B to IC50 for human recombinant MAO-A.

For the compound `Cn1c(CN2CCOCC2)cc2cc(OCCCC3CCN(Cc4ccccc4)CC3)ccc21`, the IC50 was more than 100 µM in test [1], 4.4 µM in test [2] (read-out: IC50), 0.79 µM on Cholinesterase and 0.1 µM at Acetylcholinesterase. In addition, the Ratio IC50 is 7.9 in test [3] and more than 22.7 in the test filed under Homo sapiens.

As for `Cn1c(CNc2ccccc2)cc2cc(OCCCC3CCN(Cc4ccccc4)CC3)ccc21`, the IC50 in test [1] was more than 100 µM; in test [2] (read-out: IC50) it was more than 100 µM; in test [2] (read-out: pIC50 (converted)), 100 µM; against Cholinesterase, 0.85 µM; on Acetylcholinesterase, 0.084 µM. Also, the Ratio IC50 in test [3] was 10; in the test filed under Homo sapiens it was more than 1.

Take `Cn1c(C(=O)NCc2ccccc2)cc2cc(OCCCC3CCN(Cc4ccccc4)CC3)ccc21`: the IC50 (in test [1]; in test [2] (read-out: IC50); at Cholinesterase; at Acetylcholinesterase) was more than 100 µM in each case. For the same compound, the Ratio IC50 (in test [3]; in the test listed under Homo sapiens) was more than 1 each time.

Turning to `C#CCN(C)Cc1cc2cc(OCCCC3CCN(Cc4ccccc4)CC3)ccc2n1C`, the IC50 in test [2] (read-out: IC50) worked out at 0.0042 µM.

Take `Cn1c(CO)cc2cc(OCCCC3CCN(Cc4ccccc4)CC3)ccc21`: the IC50 was more than 100 µM in test [1], 4.26 µM in test [2] (read-out: IC50), more than 100 µM against Cholinesterase and 0.24 µM against Acetylcholinesterase. Besides, the results for the Ratio IC50 (in test [3]; in the test listed under Homo sapiens) were more than 416 and more than 23, respectively.

Take `Cn1c(C(=O)N2CCOCC2)cc2cc(OCCCC3CCN(Cc4ccccc4)CC3)ccc21`: the IC50 in test [1] is more than 100 µM; in test [2] (read-out: IC50), more than 100 µM; on Cholinesterase it was more than 100 µM; against Acetylcholinesterase, 0.27 µM. In addition, the Ratio IC50 in test [3] was more than 370; in the test listed under Homo sapiens it was more than 1.

As for `Cn1c(CNCc2ccccc2)cc2cc(OCCCC3CCN(Cc4ccccc4)CC3)ccc21`, the IC50 in test [1] is more than 100 µM; in test [2] (read-out: IC50), more than 100 µM; in test [2] (read-out: pIC50 (converted)) it was 100 µM; at Cholinesterase it was 0.29 µM; against Acetylcholinesterase, 0.14 µM. Also, the results for the Ratio IC50 (in test [3]; in the test filed under Homo sapiens) were 2 and more than 1, respectively.

Regarding `COc1ccc2c(c1)cc(C(=O)NCc1ccccc1)n2C`, the IC50 (in test [1]; in test [2] (read-out: IC50); on Cholinesterase; against Acetylcholinesterase) was more than 100 µM in each case. Besides, the Ratio IC50 (in test [3]; in the test listed under Homo sapiens) was more than 1 each time.

In the case of `Cn1c(C(=O)O)cc2cc(OCCCC3CCN(Cc4ccccc4)CC3)ccc21`, the IC50 was more than 100 µM in test [1], more than 100 µM in test [2] (read-out: IC50), more than 100 µM on Cholinesterase and 0.4 µM against Acetylcholinesterase. For the same compound, the Ratio IC50 was more than 250 in test [3] and more than 1 in the test filed under Homo sapiens.

With `C#CCNC(=O)c1cc2cc(OCCCC3CCN(Cc4ccccc4)CC3)ccc2n1C`, the IC50 in test [1] was more than 100 µM; in test [2] (read-out: IC50), more than 100 µM; against Cholinesterase, more than 100 µM; against Acetylcholinesterase, 0.13 µM. Besides, the Ratio IC50 in test [3] is more than 770; in the test listed under Homo sapiens it was more than 1.

`C#CCNCc1cc2cc(OCCCC3CCN(Cc4ccccc4)CC3)ccc2n1C`: the IC50 in test [1] was 0.15 µM; in test [2] (read-out: IC50), 0.0055 µM; against Cholinesterase it was 0.83 µM; against Acetylcholinesterase, 0.19 µM. Besides, the Ratio IC50 in test [3] was found to be 4.4; in the test filed under Homo sapiens, 27.3.

For the compound `Cn1c(C(=O)Nc2ccccc2)cc2cc(OCCCC3CCN(Cc4ccccc4)CC3)ccc21`, the IC50 (in test [1]; in test [2] (read-out: IC50); on Cholinesterase; on Acetylcholinesterase) was more than 100 µM in each case. Moreover, the Ratio IC50 (in test [3]; in the test listed under Homo sapiens) was more than 1 throughout.

In the case of `COc1ccc2c(c1)cc(CNCc1ccccc1)n2C`, the IC50 in test [1] was more than 100 µM; in test [2] (read-out: IC50) it was more than 100 µM; in test [2] (read-out: pIC50 (converted)), 100 µM; on Cholinesterase, 22.9 µM; on Acetylcholinesterase it was 15.2 µM. Also, the Ratio IC50 is 1.5 in test [3] and more than 1 in the test listed under Homo sapiens.

For the compound `CCOC(=O)c1cc2cc(OCCCC3CCN(Cc4ccccc4)CC3)ccc2n1C`, the IC50 is more than 100 µM in test [1], 1.53 µM in test [2] (read-out: IC50), more than 100 µM against Cholinesterase and 0.27 µM against Acetylcholinesterase. In addition, the Ratio IC50 in test [3] is more than 370; in the test filed under Homo sapiens it was more than 65.

For `C=CCNCc1cc2cc(OCCCC3CCN(Cc4ccccc4)CC3)ccc2n1C`, the IC50 in test [1] was found to be 15.3 µM; in test [2] (read-out: IC50) it was 0.98 µM; at Cholinesterase it was 0.46 µM; against Acetylcholinesterase it was 0.14 µM. The Ratio IC50 was 3.3 in test [3] and 15.6 in the test filed under Homo sapiens.
